Experimental findings from US20130324606A1, “Ester Derivatives of Bimatoprost Compositions and Methods” (ALLERGAN, INC., priority 2011, published 2013) are described below.

A short description of series [1]: In vitro human skin penetration (Franz diffusion chamber). Format: in vitro ADME. The conditions noted are these: FIGS. 14A-14C, 6, 24, 48 hr.
Series [2] in a line: Dermal tolerability in rats. To be noted: female rats; for change in food consumption and body weight gain (in words): 3 mg/kg/day daily for 8 days; for Body Weight Gain (g) Mean ± SD / Food Consumption (g) Mean ± SD: dermal 3 mg/kg/day daily for 8 days, Formulation A. It is filed as in vivo. The procedure:
Female rats were administered either vehicle or one of Cmpds IVa, IIIb, or IVb daily for 8 days. The administered dose was 3 mg/kg/day, at a concentration of 3 mg/mL. Observed data were body weight, viability, food consumption, and dermal observation (skin reaction grading), as known in the art. The vehicle was Formulation A. See Table 1 above.

Series [3] can be described thus: In vitro human skin penetration (Franz diffusion chamber). Format: in vitro ADME. To be noted: for skin penetration (cumulative amount in receptor solution) relative to bimatoprost / penetration flux relative to bimatoprost / Percentage Dose Applied, Receptor Chamber Solution, Prodrug / Percentage Dose Applied, Upper ⅓ Dermis, Prodrug: 0.03% in Formulation A; for skin penetration (cumulative amount in receptor solution) relative to bimatoprost: FIG. 13A; for penetration flux relative to bimatoprost: FIG. 13B; for Percentage Dose Applied, Receptor Chamber Solution, Prodrug: Franz chamber; for Percentage Dose Applied, Receptor Chamber Solution, Prodrug / Percentage Dose Applied, Upper ⅓ Dermis, Prodrug: dosed compound; for Percentage Dose Applied, Upper ⅓ Dermis, Prodrug: dermis at 48 hrs; for conversion to bimatoprost in the SC/Epi/Dermis layers: FIG. 15A; for amount of active agent in the upper third of the dermis relative to bimatoprost: FIG. 15B. From the text: Test material: Dermatomed ex vivo human cadaver posterior trunk skin on 1.0 cm^2 Franz diffusion chamber as known in the art. Test size: 3 skin donors (obtained from New York Firefighters Skin Bank), 3 replicates per donor per formulation. Test formulations: 0.03% active agent (Cmpd IVa, Cmpd IIIb, Cmpd IVb) in Formulation A; control formulation: bimatoprost at 0.03% in Formulation A. Dosing regimen: receptor fluid at 2, 4, 24, and 48 hrs; SC/epidermis and dermis at 48 hrs. Sample analysis: LC/MS-MS to detect bimatoprost and Cmpds IVa, IIIb and IVb.

Series [4] relates to mouse skin. Nature of the series: Pathology assessment of mouse hair regrowth model. It is filed as in vivo, mice. The conditions noted are these: histology, 0.03% active, vehicle control still in growth phase. From the text: Histological samples from test subjects employed in the studies described in Example 12 were obtained for pathology assessment.
The test system of series [5] is C57Black/6J mice. Nature of the series: Piliation (hair regrowth) studies in mice. Format: in vivo. The conditions noted are these: for pharmacological efficacy relative to bimatoprost: mouse hair regrowth, vehicle Formulation A. The procedure: C57Black/6J, 7-week old female mice (n=10) were employed in piliation studies. Dorsal hair was shaved (area ˜2 cm×4 cm). Dosing of active agent was once per day (QD) by topical administration for 14 days. Observations were conducted for 42-days to determine onset of new hair growth and day of hair growth completion. Compounds were formulated as either a) 50% propylene glycol, 30% ethanol, 20% water, or b) the formulation of Formulation A described above. The experiments reported for FIGS. 4A-4B, 5A-5B, 6A-6B, 8A-8B, and 9A-9B were conducted using a vehicle with formulation of 50% propylene glycol, 30% ethanol, 20% water. The experiments reported for FIGS. 7A-7B were conducted using a vehicle of Formulation A described above.
For each of FIGS. 4A, 5A, 6A, 7A, 8A and 9A, the histograms depict the day of onset of hair growth. For each of FIGS. 4B, 5B, 6B, 7B, 8B and 9B, the histograms depict the day achieving full hair growth.

A short description of series [6]: microAmes mutagenesis screen. To be noted: with or without metabolic activation. Format: cell-based. An excerpt: Cmpds IVa, IIIb, and IVb were subjected to the microAmes screen, as known in the art.
Series [7] relates to reconstructed human epidermis (RHE). Nature of the series: In vitro dermal irritation screening in reconstructed human epidermis. Format: cell-based. The conditions noted are these: concentration 0.03%, Formulation A vehicle. The procedure:
In vitro irritation screening assays were conducted for compounds described herein. Test system was the reconstructed human epidermis (RHE), as known in the art. Single dosing was employed, and endpoints were evaluated as a function of time up to 24-hrs. Endpoints were tissue viability and IL-1α release.
Test compounds included Cmpds IVa (0.03%), IIIb (0.03%), IVb (0.03%), bimatoprost (0.03%), minoxidil (5%, foam), and minoxidil (5%, solution). Administration of Cmpds IVa, IIIb, IVb and bimatoprost employed the vehicle of Formulation A. See Table 1 above. Administration of minoxidil employed minoxidil vehicle with formulation 20% H2O, 50% propylene glycol, and 30% ethanol.

Series [8] is described as follows: Formulation and stability studies. Format: physicochemical. The conditions noted are these: variations of Formulation A, 0.03% active, pH 4, 5, 6 and 7; 25, 40 and 60° C.; zero time and 80-days. How it is done:
Stability over time of compounds disclosed herein was determined in formulation as a function of temperature and pH. Variations of Formulation A described herein were employed wherein the target concentration of active agent was 0.03%, and the pH was varied at pH 4, 5, 6 and 7. Temperatures of 25° C., 40° C. and 60° C. were maintained during the experiment. Samples were evaluated at zero time and 80-days.
Cmpds IVa, IIIb, and IVb for evaluated for stability.
FIGS. 1A-1B, 2A-2B, and 3A-3B depict histograms of relative concentrations of test compounds (arbitrary scale) at zero time or 80-days. FIG. 1A depicts a histogram of the stability profile of Cmpd IVa as a function of pH and temperature. FIG. 1B depicts a histogram of the formation of bimatoprost as a function of pH and temperature after 80-days for Cmpd IVa. FIG. 2A depicts a histogram of the stability profile of Cmpd IVb as a function of pH and temperature. FIG. 2B depicts a histogram of the formation of bimatoprost as a function of pH and temperature after 80-days for Cmpd IVb. FIG. 3A depicts a histogram of the stability profile of Cmpd IIIb as a function of pH and temperature. FIG. 3B depicts a histogram of the formation of bimatoprost as a function of pH and temperature after 80-days for Cmpd IIIb.

Series [9] is described as follows: Partitioning in artificial sebum. Format: physicochemical. How it is done:
Compounds bimatoprost, Cmpd IVa, and Cmpd IIIb were added to aqueous solution (1 mL, 2-20 ug/mL), with and without 1-20 mg artificial sebum. Samples were shaken for 16 hr at 37° C. Samples were then centrifuged (8000 RPM) for 15 min at room temperature, prior to collection of the aqueous solution. Samples were analyzed for concentration of compound without artificial sebum (i.e., Co) and with artificial sebum (i.e., Ci) by mass spectroscopy. Artificial sebum and water partition coefficient (Ksebum) was expressed as the concentration of drug in 1 g of artificial sebum divided by the concentration of drug in 1 g of aqueous solution, and was calculated as Ksebum=(Co−Ci)Waqueous/(Ci×Wsebum) (Eqn. 1), where W represents weight.
Artificial sebum was prepared as follows: 15% (w/w) squalene, 15% spermaceti, 10% coconut oil, 1.5% oleic acid, 5% palmitic acid, 2.4% cholesterol oleate, 10% paraffin wax, 10% olive oil, 25% cottonseed oil, 5% palmitoleic acid, 1.2% cholesterol. The melting point of the semi-liquid was 37° C.

A short description of series [10]: Pharmacokinetic assessment of mouse hair regrowth model. It is filed as in vivo. To be noted: mice, 0.03% dermal daily ~60 uL, all measured time points, LC/MS-MS. The procedure:
Female C57BL/6J mice (n=2) were assayed per time point per treatment group. Treatment groups: (1) vehicle; (2) 0.03% Cmpd IVa; (3) 0.03% Cmpd IIIb; (4) 0.03% Cmpd IVb; (5) 0.03% bimatoprost. Treatment dosing: dermal daily application of ˜60 uL test compound solution. Blood and skin pharmacokinetic time points were obtained at day 1 (1, 4, 8 and 24-hrs post-dose); day 2 (24-hrs post-dose); day 14 (24-hrs post-dose); and day 42 (28 days post day 14 dose). Bioanalysis employed LC/MS-MS.

The test system of series [11] is human hair dermal papilla cells, HHDPC. Nature of the series: Cellular dielectric spectroscopy (CDS) in dermal papilla cells. It is filed as cell-based. The conditions noted are these: for EC50: cell impedance, tested range 10^−4 to 10^−13 mol/L. How it is done:
Cellular dielectric spectroscopy (CDS) was conducted in an assay of dermal papilla cells (i.e., human hair dermal papilla cells, HHDPC) with bimatoprost and Cmpds IVc and IVb. As known in the art, CDS is a real-time, non-invasive, label-free, high-throughput, cell-based assay which measures electrical cell impedance. Without wishing to be bound by any theory, it is believed that GPCR activation induces changes in cell morphology, cell-cell interaction, and cell adherence which manifest as a change in cell impedance.

Take `CCNC(=O)CCC/C=C\C[C@@H]1[C@@H](/C=C/[C@@H](O)CCc2ccccc2)[C@H](OC(=O)CC)C[C@@H]1O` [Cmpd IIIb, 11-propionyl bimatoprost]: in series [1], the “conversion to bimatoprost in the receptor chamber solution” value is “observed to convert to bimatoprost”. In series [2], the “change in food consumption and body weight gain (in words)” value is “no significant change in food consumption or body weight gain”; the “Body Weight Gain (g) Mean ± SD” value amounted to 10.0 ± 6.1 g; the “Food Consumption (g) Mean ± SD” value is listed as 22.8 ± 1.36 g. Moreover, the “dermal observation: signs of irritation” value in [2] (3 mg/kg/day, days 2-4) was “minimal and transient signs of irritation”. Further, in series [3], the “skin penetration (cumulative amount in receptor solution) relative to bimatoprost” value is on record as “significantly greater than for bimatoprost”; the “penetration flux relative to bimatoprost” value is on record as “greater than that for bimatoprost”; the “Percentage Dose Applied, Receptor Chamber Solution, Prodrug” value came out at 0.8 Percentage Dose Applied; the “Percentage Dose Applied, Upper ⅓ Dermis, Prodrug” value worked out at 2.1 Percentage Dose Applied. For the same compound, in series [3], the “conversion to bimatoprost in the SC/Epi/Dermis layers” value is on record as “converted to bimatoprost” and the “amount of active agent in the upper third of the dermis relative to bimatoprost” value is recorded as “less than observed for bimatoprost”. In addition, the “hair cycle phase at day-42” value in series [4] is on record as “returned to the resting phase”. The “pharmacological efficacy relative to bimatoprost” value in series [5] was “approximately equivalent efficacy”. In addition, in series [6], the “mutagenicity in microAmes screen” value is recorded as “not mutagenic”. In addition, the “potential for irritation of the human skin” value in series [7] was “no indication of potential for irritation”. Moreover, the stability in formulation result in series [8] is “stable in formulation”. In addition, in [9] (artificial sebum / aqueous solution), the “phase in which the majority of compound remains” value is recorded as “remain in the aqueous phase”. Also, the “Ave. Ksebum (artificial sebum and water partition coefficient)” value in series [9] (n = 4, 16 hr at 37° C.) is 6.1. For the same compound, the “level in the systemic circulation” value in series [10] is “most undetectable”.
On to `CCNC(=O)CCC/C=C\C[C@@H]1[C@@H](/C=C/[C@H](CCc2ccccc2)OC(=O)CC)[C@H](O)C[C@@H]1O` [Cmpd IVb, 15-propionyl-bimatoprost], for which, in series [1], the “conversion to bimatoprost in the receptor chamber solution” value is “observed to convert to bimatoprost”. Moreover, in [2], the “change in food consumption and body weight gain (in words)” value was “decreases in both food consumption and body weight gain”; the “Body Weight Gain (g) Mean ± SD” value worked out at 0.3 ± 6.7 g; the “Food Consumption (g) Mean ± SD” value is listed as 19.19 ± 1.32 g. Also, in series [11], the “change in cell impedance” value is recorded as “not observed to provide a change in cell impedance” and the EC50 result is reported as “could not be determined”. In series [3], the “skin penetration (cumulative amount in receptor solution) relative to bimatoprost” value is given as “significantly greater than for bimatoprost”; the “penetration flux relative to bimatoprost” value is given as “greater than that for bimatoprost”; the “Percentage Dose Applied, Receptor Chamber Solution, Prodrug” value worked out at 2.1 Percentage Dose Applied; the “Percentage Dose Applied, Upper ⅓ Dermis, Prodrug” value is on record as 1.9 Percentage Dose Applied. Further, in series [3], the “conversion to bimatoprost in the SC/Epi/Dermis layers” value was “converted to bimatoprost” and the “amount of active agent in the upper third of the dermis relative to bimatoprost” value is recorded as “less than observed for bimatoprost”. Moreover, the “hair cycle phase at day-42” value in series [4] is “returned to the resting phase”. Also, in [5] (0.03%, topical QD 14 days, vehicle 50% propylene glycol, 30% ethanol, 20% water, FIG. 6A), the “days for hair growth to commence (day of onset of hair growth)” value stood at 16 days. In addition, in series [5] (0.03%, topical QD 14 days, vehicle 50% propylene glycol, 30% ethanol, 20% water, FIG. 6B), the “days for full hair growth to be achieved” value was found to be 32 days. Also, the “activity in the time required to regain full hair growth (ranking)” value in series [5] (among compounds tested at 0.03%) was “best activity”. For the same compound, the “pharmacological efficacy relative to bimatoprost” value in series [5] is given as “approximately equivalent efficacy”. Further, in series [6], the “mutagenicity in microAmes screen” value is “not mutagenic”. The “potential for irritation of the human skin” value in series [7] was “no indication of potential for irritation”. In addition, the stability in formulation result in series [8] is given as “stable in formulation”. Moreover, the “level in the systemic circulation” value in series [10] is “most undetectable”.
For `CCCC(=O)O[C@H](/C=C/[C@@H]1[C@@H](C/C=C\CCCC(=O)NCC)[C@@H](O)C[C@H]1O)CCc1ccccc1` [Cmpd IVc, 15-butyryl bimatoprost], in series [11], the “change in cell impedance” value is “not observed to provide a change in cell impedance” and the EC50 result was “could not be determined”.
